Source: patent publication EP0404671A1, “Thioformamide derivatives” (RHONE-POULENC SANTE, priority 1989, dated 1990)

Columns and labels:
mean blood pressure = test: Hypotensive activity in the anaesthetised rat; type: in vivo; settings: intravenous dose required to reduce the mean blood pressure
Experimental: The intravenous dose required to reduce the mean blood pressure in an anaesthetised rat was determined and expressed in µg/kg/min as the effective concentration (EC₃₀).

[1] = tested on: histamine-induced bronchospasm and blood pressure; test: Broncho-relaxant activity in the anaesthetised guinea pig (method of Dixon and Brodie); type: in vivo; settings: nebulised aerosol of 200µg/ml aqueous solution for 1 minute; for Broncho-relaxant % maximum bronchospasm: histamine-induced bronchospasm
Experimental: In in vivo tests in the anaesthetised guinea pig, performed according to the method of Dixon W.E. and Brodie T.G., J. Physiol 29, 97-173 (1903), the effect on histamine-induced bronchospasm and blood pressure was determined.
A nebulised aerosol generated from an aqueous solution , having a concentration of 200µg/ml was administered for 1 minute to the anaesthetised guinea pigs.

Thoracic aorta = test: Vaso-relaxant activity: relaxation of K+-induced contraction of rat thoracic aorta strips; design: species or system rats; settings: rat thoracic aorta strips denuded of endothelium, contraction induced by 20mM K⁺, cumulative concentration; read-out: Vaso-relaxant EC₉₀
Experimental: The test methods used were adapted from those described by Winslow et al [Eur. J. Pharmacol., 131, 219-228 (1986)] and Karaki [J. Pharmacol Methods, 18, 1-21, (1987)] for differentiating vaso-relaxant activity.
Thoracic aorta was removed from rats and transverse strips, denuded of endothelium, were suspended in a bath containing Krebs solution. The tension was recorded and a contraction induced by addition of 20mM K⁺ (potassium ion) to the bathing solution. The test compound was added to the bath as a solution in increasing cumulative concentration. The concentration in the bathing solution of the test compound which reduced the K⁺-induced contraction was determined and expressed in nM as the effective concentration (EC₉₀)

Compound: CNC(=S)[C@]1(c2cccnc2)CCCC/C1=N\OCc1c(F)c(F)c(F)c(F)c1F [Compound 1, (1S)-anti-N-methyl-2-(2,3,4,5,6-pentafluorobenzyloxyimino)-1-(pyrid-3-yl)cyclohexanecarbothioamide]
- Hypotensive EC₃₀ (mean blood pressure): 0.9 µg/kg/min
- Broncho-relaxant % maximum bronchospasm [1]: 28%
- Broncho-relaxant B.P. [1]: 40 mmHg
- EC90 (Thoracic aorta): 1 nM

Compound: CNC(=S)[C@]1(c2cccnc2)CCCC/C1=N\OCc1ccc(F)c(F)c1 [Compound 2, (1S)-anti-N-methyl-2-(3,4-difluorobenzyloxyimino)-1-(pyrid-3-yl)cyclohexanecarbothioamide]
- Hypotensive EC₃₀ (mean blood pressure): 0.5 µg/kg/min
- Broncho-relaxant % maximum bronchospasm [1]: 17%
- Broncho-relaxant B.P. [1]: 32 mmHg
- EC90 (Thoracic aorta): 0.3 nM
